Article PMC3214022, “Plasmodium falciparum Parasites Are Killed by a Transition State Analogue of Purine Nucleoside Phosphorylase in a Primate Animal Model” (PLoS ONE, 2011)
Values joined by “and” are separate entries in the source; they are usually repeats but may differ in a detail not shown here. Equal entries are not always repeated.

How the values were obtained:
[1] = system: P. falciparum-infected erythrocytes; experiment: Metabolic labeling with [3H]inosine or [3H]hypoxanthine and HPLC analysis; format: cell-based, Plasmodium falciparum; details: 10 µM BCX4945, 1 h labeling
Description: Samples were extracted with perchloric acid (PCA), neutralized and analyzed by HPLC as described.

[2] = system: P. falciparum infected-erythrocytes; experiment: Polyamine and purine levels in cultured cells after BCX4945 treatment (HPLC, UPLC/MS/MS); format: cell-based, Plasmodium falciparum; details: 5 µM BCX4945, 24 h
Procedure: (§1) Polyamines from 0.5 M PCA extracts were analyzed as the dansyl-derivatives by HPLC/fluorescence on a Waters Millennium system. Protein concentration was determined with a bicinchoninic acid (BCA) protein assay kit according to the manufacturer's instructions (Pierce) using BSA as a standard. Data from biological samples were normalized to the protein content.
(§2) Samples from blood cells, plasma and media were extracted and analyzed in duplicate. […] Samples were incubated for 20 min at 4 °C and neutralized with 5 M KOH at 10∶1 (v/v, HClO4/KOH) for 20 min at 4 °C. Plates were centrifuged (10 min at 4,000 rpm, 4°C) and supernatants were filtered through a MultiScreen® Filter Plate with Ultracel®-10 Membrane (Millipore). Metabolite and inhibitor levels were quantified by UPLC/MS/MS using a Xevo TQ mass spectrometer (Waters). […] Quantitative determination was performed in ESI positive-ion mode using multiple-reaction monitoring (MRM) mode. The ESI capillary voltage was 0.3 kV, source temperature was set at 150 °C and desolvation temperature at 450 °C. Data acquisition and analysis were carried out by MassLynx V4.1 and QuanLynx software (Waters). The concentration of the metabolites was calculated by interpolation of the observed analyte/internal standard peak-area ratio with the corresponding calibration curve.

[3] = system: human erythrocytes; experiment: as above; format: cell-based; details: uninfected erythrocytes, 5 µM BCX4945, 24 h
Procedure: as §1, §2

[4] = system: P. falciparum (FVO strain); experiment: Efficacy study: parasitaemia in infected Aotus monkeys (thick blood smears); format: in vivo, Aotus lemurinus lemurinus; details: for Parasitaemia: oral 50 mg kg^−1 twice a day for 7 days, monkeys ITM 1-3 = c3-c5
Procedure: (§3) Laboratory bred Aotus lemurinus lemurinus monkeys (0.75–0.89 kg) were maintained as described. […] Blood samples were collected before the treatment started (t = 0), 0.05 h, 0.5 h, 1 h, 2 h, 6 h, 24 h, 48 h, and 6, 12 and 18 days after the first dose from each monkey and processed as described below. Pharmacokinetic parameters were calculated using PKSolver. For efficacy studies, Aotus monkeys were inoculated intravenously with 5×10^6 parasites of the FVO strain of P. falciparum in an approved treatment protocol. […] Parasitaemia was determined by Giemsa-stained thick blood smears prepared daily from the marginal ear vein [41]. Blood samples were collected from each monkey and transferred to tubes containing lithium heparin, centrifuged and both plasma and blood cells were frozen at −80 °C until analysis. Animals received a physical examination and blood chemistry profiles were monitored after treatment as described previously. Any monkey not responding appropriately to treatment was cured of its infection with mefloquine (40 mg kg^−1). […] The day of clearance is defined as the first of three consecutive days in which the thick blood films are parasite negative. The day of recrudescence is the first of three consecutive days of positive thick blood films after a period of clearance. Suppression is defined as a transient decrease in the parasite count post-treatment without clearance.

[5] = in vivo; parameters: species or system Aotus lemurinus lemurinus
Procedure: as §2, §3

[6] = Weights, CBC and blood chemistry, Table S1 sheet PK (pharmacokinetic study); format: in vivo, Aotus lemurinus lemurinus
Procedure: as §3

[7] = system: P. falciparum cultures; experiment: Inosine and hypoxanthine rescue assay; format: cell-based, Plasmodium falciparum; details: 15 µM BCX4945, hypoxanthine or inosine up to 200 µM, 72 h
Procedure: Synchronized, schizont stage parasites were washed in purine-free medium to remove excess hypoxanthine and inoculated into freshly drawn erythrocytes that had been washed and resuspended in purine-free medium. The schizont stage parasites were cultured in purine-free medium for 24 h to further reduce hypoxanthine inside the cell. […] Parasite viability was determined by DNA quantitation as described by Quashie and colleagues. For each condition, two independent experiments were carried out in triplicate.

[8] = oral 50 mg kg^−1 twice a day for seven days

For `Nc1nc2c(CN3CC(O)C(CO)C3)c[nH]c2c(=O)[nH]1` (stereo not drawn) [BCX4945, 4′-deaza-1′-aza-2′-deoxy-1′-(9-methylene)-Immucillin-G], the “[3H]hypoxanthine incorporation into purine derivatives” value [1] was “continues at reduced levels”, the “[3H]inosine incorporation into the purine pool” value ([1]; schizont and trophozoite stages) was “complete inhibition” and the “Adenosine, cell pellet” value [2] was 10±4 nmoles/mg protein. The “Adenosine, supernatant” value [2] was 0.4±0.2 (0.08) µM, the “BCX4945 level, cell pellet” value [2] was 20±6 (0.004) nmoles/mg protein and the “BCX4945 level, supernatant” value [2] was 5±0.6 (0.0002) µM. For the same molecule, the “Hypoxanthine, cell pellet” value [2] was 0 (0.007) nmoles/mg protein, the “Hypoxanthine, supernatant” value [2] was 0 (0.004) µM and the “Inosine, cell pellet” value [2] was 19±5 nmoles/mg protein. The “Inosine, supernatant” value [2] was 60 µM and 61±5 (0.0001) µM, the “MTA, cell pellet” value [2] was 0.6±0.1 nmoles/mg protein and the “MTA, supernatant” value [2] was 0 µM. The “MTI, cell pellet” value [2] was 0.6±0.1 nmoles/mg protein, the “MTI, supernatant” value [2] was 0.3±0.1 (0.03) µM and the “Putrescine, cell pellet” value [2] was 0.2±0.1 (0.01) nmoles/mg protein. For the same molecule, the “Spermidine, cell pellet” value [2] was 1.1±0.3 (0.02) nmoles/mg protein, the “Spermine, cell pellet” value [2] was 0.07±0.03 (0.01) nmoles/mg protein and the “Adenosine, cell pellet” value [3] was 2.60±0.03 (0.2) nmoles/mg protein. The “Adenosine, supernatant” value [3] was 0.6±0.2 (0.2) µM, the “BCX4945 level, cell pellet” value [3] was 36±12 (0.07) nmoles/mg protein and the “BCX4945 level, supernatant” value [3] was 4.0±0.2 (0.01) µM. The “Hypoxanthine, cell pellet” value [3] was 0 nmoles/mg protein, the “Hypoxanthine, supernatant” value [3] was 0 (0.04) µM and the “Inosine, cell pellet” value [3] was 37±6 (0.04) nmoles/mg protein. For the same molecule, the “Inosine, supernatant” value [3] was 8±3 (0.08) µM, the “MTA, cell pellet” value [3] was 0 nmoles/mg protein and the “MTA, supernatant” value [3] was 0 µM. For the same molecule, the “MTI, cell pellet” value [3] was 0 nmoles/mg protein, the “MTI, supernatant” value [3] was 0 µM and the “Putrescine, cell pellet” value [3] was 0 nmoles/mg protein. The “Spermidine, cell pellet” value [3] was 0.060±0.003 nmoles/mg protein, the “Spermine, cell pellet” value [3] was 0.030±0.002 nmoles/mg protein and the Parasitaemia ([4]; day 1 post-treatment) was 0 Parasites per µl×10^3. For the same molecule, the Parasitaemia ([4]; day of treatment 6) was 0 Parasites per µl×10^3, the Parasitaemia ([4]; day −1 (before treatment)) was 0.7 Parasites per µl×10^3 and 0.5 Parasites per µl×10^3 and the “clearance of P. falciparum infection” value [4, 8] was “cleared P. falciparum infections between the fourth and the seventh day of treatment”. The “parasitaemia cleared, of the original infection” value [4, 8] was over 99.99%, the “time monkeys remained parasite-negative post-treatment” value [4, 8] was “up to nine days” and the “response to treatment (category)” value ([4]; oral BCX4945, Aotus model) was “clearance and recrudescence”. For the same molecule, the bioavailability ([5]; Aotus lemurinus lemurinus) was 28%, the concentration at 24 h ([5]; Aotus lemurinus lemurinus, po) was about 1.2 µM and the “plasma concentration within 1 h of the first dose” value ([5]; Aotus lemurinus lemurinus, po) was “approximately 6 µM”. For the same molecule, the half-life ([5]; monkey) was 1.2 to 1.3 h, the half-life ([5]; monkey, iv, 10 mg/kg) was 1.3 h and the Cmax ([5]; monkey, po, 50 mg/kg) was at most 15 µM. The half-life ([5]; monkey, po, 50 mg/kg) was 1.2 h, the Creatine ([6]; IV 10 mg/kg once a day/3 days, monkeys 21014 (c1-5), 21007 (c6-10), 22014 (c11-15), 22004 (c16-20), days -2, 6, 12, 18 (22004: 19), 79, 10 mg/kg, day 12) was 0.55 mg/dL and 0.532 mg/dL and the Creatine ([6]; IV 10 mg/kg once a day/3 days, monkeys 21014 (c1-5), 21007 (c6-10), 22014 (c11-15), 22004 (c16-20), days -2, 6, 12, 18 (22004: 19), 79, 10 mg/kg, day -2) was <0.5 mg/dL and 0.5 mg/dL. The “Blood Urea Nitrogen” value ([6]; oral, one dose 50 mg/kg, monkey 23015, days -2, 6, 12, 19, 79 = c1-c5, 50 mg/kg) was under 10.0 mg/dL, the Creatine ([6]; oral, three doses 50 mg/kg once a day/3 days, monkey 23029, days -2, 6, 12, 19, 79 = c11-c15) was under 0.5 mg/dL and the “rescue of growth by purine supplementation” value [7] was “Hypoxanthine, but not inosine, can bypass PNP inhibition”.
